Results on 26 molecules are retold here after patent publication US11970494B2, “6-heteroaryloxy benzimidazoles and azabenzimidazoles as JAK2 inhibitors” (Ajax Therapeutics, Inc., priority 2021, dated 2024).

pKd: −log10 of the molar value.

The target of this test is T1, JAK2 (JH1 domain-catalytic, Y1007F,Y1008F) kinase (Homo sapiens, UniProt O60674, Y1007F/Y1008F).
T1 construct: made in house; host or cells: transiently transfected HEK293 cells
T1 sequence (O60674 849-1124 Y1007F/Y1008F limits assumed): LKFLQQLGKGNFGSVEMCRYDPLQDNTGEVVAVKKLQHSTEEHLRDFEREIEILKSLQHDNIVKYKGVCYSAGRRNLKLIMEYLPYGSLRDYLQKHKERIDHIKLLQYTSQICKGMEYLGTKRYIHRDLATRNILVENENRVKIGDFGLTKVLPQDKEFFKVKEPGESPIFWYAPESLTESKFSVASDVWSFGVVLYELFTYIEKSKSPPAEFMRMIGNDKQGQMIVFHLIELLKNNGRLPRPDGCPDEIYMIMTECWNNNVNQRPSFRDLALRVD
The test is described as follows: JAK2 Binding Assay (JAK2 JH1 Domain Binding Assay). Particulars: JAK2 JH1 domain binding, qPCR detection; read-out: JAK2 Kd. In general terms: Quantitative PCR measures a nucleic acid by following its amplification.
What is called pKd is the Kd on a negative log10 scale, so that one unit is a factor of ten. Turning to `CC(=O)Nc1cc(Oc2cnc3nc(Nc4cc(O[C@H]5CCN(C)C5)cc(C(F)(F)F)c4)n(C)c3c2Cl)ccn1` [Example I-99, (S)-N-(4-((7-chloro-1-methyl-2-((3-((1-methylpyrrolidin-3-yl)oxy)-5-(trifluoromethyl)phenyl)amino)-1H-imidazo[4,5-b]pyridin-6-yl)oxy)pyridin-2-yl)acetamide], the pKd is above 8.00.

As for `CN1CCO[C@H](CC(=O)Nc2cc(Oc3cnc4nc(Nc5cc(C(F)(F)F)cn(C)c5=O)n(C)c4c3C#N)ccn2)C1` (single isomer, unassigned) [Example I-90-a], the pKd was above 8.00.

Take `CN(C)C(=O)Nc1cc(Oc2cnc3nc(Nc4cc5n(n4)CCOC5(C)C)n(C)c3c2C#N)ccn1` [Example I-44, 3-(4-((7-cyano-2-((4,4-dimethyl-6,7-dihydro-4H-pyrazolo[5,1-c][1,4]oxazin-2-yl)amino)-1-methyl-1H-imidazo[4,5-b]pyridin-6-yl)oxy)pyridin-2-yl)-1,1-dimethylurea]: the pKd was above 8.00.

Take `CC(=O)Nc1cc(Oc2cnc3nc(Nc4cc(OC[C@@H]5CCCN5C)cc(C(F)(F)F)c4)n(C)c3c2Cl)ccn1` [Example I-96, (S)-N-(4-((7-chloro-1-methyl-2-((3-((1-methylpyrrolidin-2-yl)methoxy)-5-(trifluoromethyl)phenyl)amino)-1H-imidazo[4,5-b]pyridin-6-yl)oxy)pyridin-2-yl)acetamide]: the pKd was above 8.00.

On to `COCC(=O)Nc1cc(Oc2cnc3nc(Nc4cc(C(F)(F)F)n(C5CC6(CCOCC6)C5)n4)n(C)c3c2Cl)ccn1` [Example I-107, N-(4-((2-((1-(7-oxaspiro[3.5]nonan-2-yl)-5-(trifluoromethyl)-1H-pyrazol-3-yl)amino)-7-chloro-1-methyl-1H-imidazo[4,5-b]pyridin-6-yl)oxy)pyridin-2-yl)-2-methoxyacetamide], for which the pKd was 7.30 to 8.00.

For `COC(=O)Nc1cc(Oc2cnc3nc(Nc4cc5n(n4)CCCC5(F)F)n(C)c3c2C#N)ccn1` [Example I-22, Methyl(4-((7-cyano-2-((4,4-difluoro-4,5,6,7-tetrahydropyrazolo[1,5-a]dpyridin-2-yl)amino)-1-methyl-1H-imidazo[4,5-b]pyridin-6-yl)oxy)pyridin-2-yl)carbamate], the pKd is above 8.00.

Consider `CN(C)C(=O)Nc1cc(Oc2cnc3nc(Nc4cc5n(n4)CCN(C)C5=O)n(C)c3c2Cl)ccn1` [Example I-46, 3-(4-((7-chloro-1-methyl-2-((5-methyl-4-oxo-4,5,6,7-tetrahydropyrazolo[1,5-a]pyrazin-2-yl)amino)-1H-imidazo[4,5-b]pyridin-6-yl)oxy)pyridin-2-yl)-1,1-dimethylurea], for which the pKd was below 5.30.

Turning to `CN1CCO[C@@H](CC(=O)Nc2cc(Oc3cnc4nc(Nc5cc(C(F)(F)F)cn(C)c5=O)n(C)c4c3Cl)ccn2)C1` (single isomer, unassigned) [Example I-78-b], the pKd was above 8.00.

In the case of `CC(=O)Nc1cc(Oc2cnc3nc(Nc4ccc([C@H]5CCCN5C)c(C(F)(F)F)c4)n(C)c3c2C#N)ccn1` (single isomer, unassigned) [Example I-109-a], the pKd was above 8.00.

As to `[2H]C([2H])([2H])N(C(=O)Nc1cc(Oc2cnc3nc(Nc4cc(C(F)(F)F)cn(C)c4=O)n(C)c3c2C#N)ccn1)C([2H])([2H])[2H]` [Example I-52, 3-(4-((7-cyano-1-methyl-2-((1-methyl-2-oxo-5-(trifluoromethyl)-1,2-dihydropyridin-3-yl)amino)-1H-imidazo[4,5-b]pyridin-6-yl)oxy)pyridin-2-yl)-1,1-bis(methyl-d3)urea], the pKd was above 8.00.

For `COC(=O)Nc1cc(Oc2cnc3nc(Nc4cc5n(n4)CCN(C)C5=O)n(C)c3c2Cl)ccn1` [Example I-40, Methyl(4-((7-chloro-1-methyl-2-((5-methyl-4-oxo-4,5,6,7-tetrahydropyrazolo[1,5-a]pyrazin-2-yl)amino)-1H-imidazo[4,5-b]pyridin-6-yl)oxy)pyridin-2-yl)carbamate], the pKd is 5.30 to 6.00.

Turning to `COCCOC(=O)Nc1cc(Oc2cnc3nc(Nc4cc(C(F)(F)F)cn(C)c4=O)n(C)c3c2C#N)ccn1` [Example I-12, 2-methoxyethyl(4-((7-cyano-1-methyl-2-((1-methyl-2-oxo-5-(trifluoromethyl)-1,2-dihydropyridin-3-yl)amino)-1H-imidazo[4,5-b]pyridin-6-yl)oxy)pyridin-2-yl)carbamate], the negative logarithm of the Kd (pKd) was above 8.00.

With `CO[C@@H]1CCN(C(=O)Nc2cc(Oc3cnc4nc(Nc5cc(C(F)(F)F)cn(C)c5=O)n(C)c4c3C#N)ccn2)C1` [Example I-13, (R)-N-(4-((7-cyano-1-methyl-2-((1-methyl-2-oxo-5-(trifluoromethyl)-1,2-dihydropyridin-3-yl)amino)-1H-imidazo[4,5-b]pyridin-6-yl)oxy)pyridin-2-yl)methoxypyrrolidine-1-carboxamide], the pKd was above 8.00.

With `Cn1cc(C(F)(F)F)cc(Nc2nc3ncc(Oc4ccnc(NC(=O)CNCCF)c4)c(Cl)c3n2C)c1=O` [Example I-87, N-(4-((7-chloro-1-methyl-2-((1-methyl-2-oxo-5-(trifluoromethyl)-1,2-dihydropyridin-3-yl)amino)-1H-imidazo[4,5-b]pyridin-6-yl)oxy)pyridin-2-yl)-2-((2-fluoroethyl)amino)acetamide], the pKd is above 8.00.

`CC(=O)Nc1cc(Oc2cnc3nc(Nc4cc5n(n4)CCCC5(F)F)n(C)c3c2C#N)ccn1` [Example I-93, N-(4-((7-cyano-2-((4,4-difluoro-4,5,6,7-tetrahydropyrazolo[1,5-a]pyridin-2-yl)amino)-1-methyl-1H-imidazo[4,5-b]pyridin-6-yl)oxy)pyridin-2-yl)acetamide]: the pKd was above 8.00.

As for `COC(=O)Nc1cc(Oc2cnc3nc(Nc4cc5n(n4)CCCC54CC4)n(C)c3c2C#N)ccn1` [Example I-63, methyl (4-((7-cyano-2-((6′,7′-dihydro-5′H-spiro[cyclopropane-1,4′-pyrazolo[1,5-a]pyridin]-2′-yl)amino)-1-methyl-1H-imidazo[4,5-b]pyridin-6-yl)oxy)pyridin-2-yl)carbamate], the pKd is above 8.00.

In the case of `Cn1c(Nc2cc3n(n2)CCOC3(C)C)nc2ncc(Oc3ccnc(NC(=O)O[C@H]4CCOC4)c3)c(C#N)c21` [Example I-49, (S)-Tetrahydrofuran-3-yl(4-((7-cyano-2-((4,4-dimethyl-6,7-dihydro-4H-pyrazolo[5,1-c][1,4]oxazin-2-yl)amino)-1-methyl-1H-imidazo[4,5-b]pyridin-6-yl)oxy)pyridin-2-yl)carbamate], the pKd was above 8.00.

`CNC(=O)Nc1cc(Oc2cnc3nc(Nc4cc5n(n4)CCN5C(C)(C)C)n(C)c3c2C#N)ccn1` [Example I-72, 1-(4-((2-((1-(tert-butyl)-2,3-dihydro-1H-imidazo[1,2-b]pyrazol-6-yl)amino)-7-cyano-1-methyl-1H-imidazo[4,5-b]pyridin-6-yl)oxy)pyridin-2-yl)-3-methylurea]: the pKd is above 8.00.

Take `COC(=O)Nc1cc(Oc2cnc3nc(Nc4cc(C(F)(F)F)n(C5CC6(COC6)C5)n4)n(C)c3c2C#N)ccn1` [Example I-31, Methyl(4-((2-((1-(2-oxaspiro[3.3]heptan-6-yl)-5-(trifluoromethyl)-1H-pyrazol-3-yl)amino)-7-cyano-1-methyl-1H-imidazo[4,5-b]pyridin-6-yl)oxy)pyridin-2-yl)carbamate]: the pKd was 7.30 to 8.00.

Regarding `COC(=O)Nc1cc(Oc2cnc3nc(Nc4cc5n(n4)CCN5C(C)(C)C)n(C)c3c2C#N)ccn1` [Example I-71, methyl(4-((2-((1-(tert-butyl)-2,3-dihydro-1H-imidazo[1,2-b]pyrazol-6-yl)amino)-7-cyano-1-methyl-1H-imidazo[4,5-b]pyridin-6-yl)oxy)pyridin-2-yl)carbamate], the pKd was above 8.00.

On to `COCCOC(=O)Nc1cc(Oc2cnc3nc(Nc4cc5n(n4)CCCC5(F)F)n(C)c3c2C#N)ccn1` [Example I-32, 2-Methoxyethyl(4-((7-cyano-2-((4,4-difluoro-4,5,6,7-tetrahydropyrazolo[1,5-a]pyridin-2-yl)amino)-1-methyl-1H-imidazo[4,5-b]pyridin-6-yl)oxy)pyridin-2-yl)carbamate], for which the pKd was above 8.00.

For the molecule `CC(=O)Nc1cc(Oc2cnc3nc(Nc4cc([C@@H]5CCCN5C)cc(C(F)(F)F)c4)n(C)c3c2Cl)ccn1` (single isomer, unassigned) [Example I-102-b], the pKd is above 8.00.

Turning to `CC(=O)Nc1cc(Oc2cnc3nc(Nc4cc5n(n4)CCOC5(C)C)n(C)c3c2C#N)ccn1` [Example I-112, N-(4-((7-cyano-2-((4,4-dimethyl-6,7-dihydro-4H-pyrazolo[5,1-c][1,4]oxazin-2-yl)amino)-1-methyl-1H-imidazo[4,5-b]pyridin-6-yl)oxy)pyridin-2-yl)acetamide], the pKd was above 8.00.

As to `CN1CCn2nc(Nc3nc4ncc(Oc5ccnc(NC(=O)O[C@@H]6CCOC6)c5)c(Cl)c4n3C)cc2C1=O` [Example I-53, (R)-tetrahydrofuran-3-yl(4-((7-chloro-1-methyl-2-((5-methyl-4-oxo-4,5,6,7-tetrahydropyrazolo[1,5-a]pyrazin-2-yl)amino)-1H-imidazo[4,5-b]pyridin-6-yl)oxy)pyridin-2-yl)carbamate], the pKd was below 5.30.

For the molecule `CC(=O)Nc1cc(Oc2cnc3nc(Nc4ccc(CN(C)C)c(C(F)(F)F)c4)n(C)c3c2Cl)ccn1` [Example I-94, N-(4-((7-chloro-2-((4-((dimethylamino)methyl)-3-(trifluoromethyl)phenyl)amino)-1-methyl-1H-imidazo[4,5-b]pyridin-6-yl)oxy)pyridin-2-yl)acetamide], the pKd was above 8.00.

As to `CNC(=O)Nc1cc(Oc2cnc3nc(Nc4cc(C(F)(F)F)cn(C)c4=O)n(C)c3c2C#N)ccn1` [Example I-5, 1-(4-((7-cyano-1-methyl-2-((1-methyl-2-oxo-5-(trifluoromethyl)-1,2-dihydropyridin-3-yl)amino)-1H-imidazo[4,5-b]pyridin-6-yl)oxy)pyridin-2-yl)-3-methylurea], the pKd is above 8.00.
